# From ChEMBL document CHEMBL4602602, “Structure-activity relationship (SAR) studies of synthetic glycogen synthase kinase-3β inhibitors: A critical review” (Eur J Med Chem, 2019)
# Biological target: not listed separately
# Assay: Inhibition of full length recombinant His-tagged human Glycogen synthase kinase-3 beta expressed in Baculovirus expression system
# Details: not given
row,Compound,IC50 [nM]
1,COc1ccccc1C1=C(c2cn(CCCO)c3ncccc23)C(=O)NC1=O,4
2,O=C1NC(=O)C(c2cn(CCCO)c3ncccc23)=C1c1ccccc1Cl,10

# More lines, now with the values ahead:
row,IC50 [nM],Compound
1,14,O=C1NC(=O)C(c2cn(CCCO)c3ncccc23)=C1c1ccccc1C(F)(F)F
2,140,CN(C)CCCn1cc(C2=C(c3cccc4ccccc34)C(=O)NC2=O)c2cccnc21

# Biological target: T1, Glycogen synthase kinase-3 beta (Homo sapiens, UniProt P49841)
# Assay: Inhibition of full length recombinant His-tagged human Glycogen synthase kinase-3 beta expressed in Baculovirus expression system
# Details: not given
# T1 sequence (P49841 whole entry): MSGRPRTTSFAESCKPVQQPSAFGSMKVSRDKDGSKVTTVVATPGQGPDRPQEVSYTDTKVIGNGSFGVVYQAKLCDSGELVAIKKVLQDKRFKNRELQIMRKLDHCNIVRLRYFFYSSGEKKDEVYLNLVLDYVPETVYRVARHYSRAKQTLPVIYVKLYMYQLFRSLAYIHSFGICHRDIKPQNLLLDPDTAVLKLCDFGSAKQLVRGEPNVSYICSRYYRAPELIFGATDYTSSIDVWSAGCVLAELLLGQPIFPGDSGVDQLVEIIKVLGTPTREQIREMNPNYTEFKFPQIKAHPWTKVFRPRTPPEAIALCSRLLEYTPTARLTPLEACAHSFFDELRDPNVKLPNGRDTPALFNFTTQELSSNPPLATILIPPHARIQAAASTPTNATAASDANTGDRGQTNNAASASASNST
row,IC50 [nM],Compound
1,31,NCCCn1cc(C2=C(c3cccc4ccccc34)C(=O)NC2=O)c2cccnc21

# Biological target: T1, Glycogen synthase kinase-3 beta
# Assay: Inhibition of Glycogen synthase kinase-3 beta (unknown origin) after 30 mins by Kinase-Glo assay
# Details: not given
row,IC50 [nM],Compound
1,1340,CN1C(=O)CC(c2ccccc2)N=C1SCc1cn(-c2ccc(C(C)(C)C)cc2)nn1 (stereo not given)
2,153,CN1C(=O)CC(c2ccccc2)N=C1SCc1cn(-c2cccc([N+](=O)[O-])c2)nn1 (stereo not given)
3,82,Cc1ccc(-n2cc(CSC3=NC(c4ccccc4)CC(=O)N3C)nn2)cc1C (stereo not given)
4,916,CN1C(=O)CC(c2ccccc2)N=C1SCc1cn(-c2ccccc2)nn1 (stereo not given)
5,1310,COc1ccccc1-n1cc(CSC2=NC(c3ccccc3)CC(=O)N2C)nn1 (stereo not given)
6,94,CCc1ccc(-n2cc(CSC3=NC(c4ccccc4)CC(=O)N3C)nn2)cc1 (stereo not given)
7,122,CN1C(=O)CC(c2ccccc2)N=C1SCc1cn(-c2ccccc2F)nn1 (stereo not given)

# Test system: HEK293
# Assay: Activation of GSK-3 in HEK293 cells assessed as induction in beta-catenin-LEF/TCF regulated reporter gene transcription at 5 uM relative to control
# Assay type: cell-based
# Details: Homo sapiens
row,Compound,fold change (FC)
1,Cn1cc(C2=C(c3ccc(Cl)cc3Cl)C(=O)NC2=O)c2ccccc21 [SB-216763],2.5

# Test system: not listed separately
# Assay: Activation of GSK-3 in HEK293 cells assessed as induction in beta-catenin-LEF/TCF regulated reporter gene transcription
# Assay type: cell-based
# Details: Homo sapiens
row,EC50 [nM],Compound
1,3600,Cn1cc(C2=C(c3ccc(Cl)cc3Cl)C(=O)NC2=O)c2ccccc21 [SB-216763]

# Biological target: T1, Glycogen synthase kinase-3 beta
# Assay: Inhibition of Glycogen synthase kinase-3 beta in human SH-SY5Y cells after 2 hrs by ELISA
# Assay type: cell-based
# Details: not given
row,IC50 [nM],Compound
1,2300,COc1ccc(-c2cc(=O)c3c(OC)c([C@H]4O[C@H](C(=O)N[C@H](C)C(F)(F)F)[C@@H](O)[C@H](O)[C@H]4O)c(OC)cc3o2)cc1OC
2,237000,COc1ccc(-c2cc(=O)c3c(OC)c([C@H]4O[C@H](C(=O)O)[C@@H](O)[C@H](O)[C@H]4O)c(OC)cc3o2)cc1OC
3,590,COc1ccc(-c2cc(=O)c3c(OC)c([C@H]4O[C@H](C(=O)N[C@@H](C)C(F)(F)F)[C@@H](O)[C@H](O)[C@H]4O)c(OC)cc3o2)cc1OC
4,239000,COc1ccc(-c2cc(=O)c3c(OC)c([C@H]4O[C@H](CO)[C@@H](O)[C@H](O)[C@H]4O)c(OC)cc3o2)cc1OC

# Biological target: T1, Glycogen synthase kinase-3 beta
# Assay: Inhibition of Glycogen synthase kinase-3 beta (unknown origin)
# Details: not given
row,Compound,IC50 [nM]
1,CC(C)n1cc(C2=C(c3cccc(NC(=O)CF)c3)C(=O)NC2=O)c2cccnc21,17
2,C=CC(=O)Nc1cccc(C2=C(c3cn(C)c4ccc(F)cc34)C(=O)NC2=O)c1,150
3,C=CC(=O)Nc1cccc(C2=C(c3cn(C)c4cc(OC)ccc34)C(=O)NC2=O)c1,690
4,C=CC(=O)Nc1cccc(C2=C(c3cn(C(C)C)c4ncccc34)C(=O)NC2=O)c1,34
5,C=CC(=O)Nc1cccc(C2=C(c3cn(C)c4cc(F)ccc34)C(=O)NC2=O)c1,199
6,COc1ccc(/C=C/C(O)=C/C(=O)/C=C/c2ccc(OCc3ccccc3)cc2)cc1OC,900
7,COc1ccc(C2=C(Nc3ccc(C(=O)Nc4ccc(Cl)cc4)cc3)C(=O)NC2=O)cc1,190
8,COc1ccc(NC(=O)c2ccc(NC3=C(c4ccc(OC)cc4)C(=O)NC3=O)cc2)cc1,90

# The remaining lines, values ahead:
row,IC50 [nM],Compound
1,390,CCc1ccc(-n2cc(CSc3nnc(Cn4c(C(F)(F)F)nc5ccccc54)o3)nn2)cc1
2,270,Fc1ccccc1-n1cc(CSc2nnc(Cn3c(C(F)(F)F)nc4ccccc43)o2)nn1
3,120,COc1ccc(NC(=O)c2ccc(NC3=C(c4ccccc4)C(=O)NC3=O)cc2)cc1
4,640,Cc1ccc2[nH]nc(C(=O)NCC3CCN(C(=O)Nc4ccccc4)CC3)c2c1
5,170,COc1ccc(C2=C(Nc3ccc(C(=O)Nc4ccccc4)cc3)C(=O)NC2=O)cc1
6,130,O=C(CSc1nnc(Cn2c(C(F)(F)F)nc3ccccc32)o1)Nc1ccccc1
7,320,FC(F)(F)c1nc2ccccc2n1Cc1nnc(SCc2cn(-c3ccccc3)nn2)o1
8,200,O=C(CSc1nnc(Cn2c(C(F)(F)F)nc3ccccc32)o1)Nc1ccc(F)cc1
9,150,FC(F)(F)c1nc2ccccc2n1Cc1nnc(SCc2cn(-c3cccnc3)nn2)o1
